Consider 3 molecules from patent EP0187355A1, “Process for preparing beta-lactam antibiotics” (E.R. Squibb & Sons, Inc., priority 1981, dated 1982).

Structures can show the parent of a compound that is named as a salt.

Common to all, as to experiment: MIC, agar dilution
Type in all cases: cell-based

The test system of experiment [1] is Proteus vulgaris, 9416. The note with it: K-10 agar, 10^4 CFU, 37°C; for MIC: Proteus vulgaris, 9416, 18 h. How it is done: (§1) The following methodology is used to determine the minimum inhibitory concentration (hereinafter referred to as MIC) of the […] of this invention.
(§2) The test organisms are grown in approximately 15-20 ml of Antibiotic Assay broth (Difco) by inoculating (in tubes) the broth with a loopful of the organism from a BHI (Difco) agar slant. The inoculated tubes are incubated at 37°C for 18 to 20 hours. These cultures are assumed to contain 10^9 colony forming units (hereinafter CFU) per milliliter. The cultures are diluted 1:100 to give a final inoculum level of 10^4 CFU; dilutions are made with K-10 broth^*.
(§3) The compounds are dissolved in the appropriate diluent at a concentration of 1000 µg/ml. Twofold dilutions are made in K-10 broth resulting in a range from 1000 µg/ml to 0.5 µg/ml. 1.5 ml of each dilution is placed into individual square petri dishes to which 13.5 ml of K-10 agar^** is added. The final drug concentration in the agar ranges from 100 µg/ml to 0.05 µg/ml. Organism growth control plates containing agar only are prepared and inoculated before and after the test plates. The organisms are applied to the agar surface of each plate with the Denley Multipoint Inoculator (which delivers approximately 0.001 ml of each organism) resulting in a final inoculum level of 10^4 CFU on the agar surface.
(§4) The plates are incubated at 37 °C for 18 hours and the MIC's are determined. The MIC is the lowest concentration of compound inhibiting growth of the organism.
(§5) The tables that follow are tabulated results obtained when the B-lactams of this invention are tested against various organisms. The number following each organism refers to the number of the organism in the collection of E. R. Squibb & Sons,.Inc., Princeton, New Jersey. […] The symbol "N.T." means not tested.

Experiment [2] has as its system Enterobacter aerogenes, 10078. The following applies: for MIC: Klebsiella aerogenes, 10078, 18 h. How it is done: as §1, §2, §3, §4, §5
Experiment [3] has as its system Pseudomonas aeruginosa, 9545. The following applies: K-10 agar, 10^4 CFU, 37°C; for MIC: Pseudomonas aeruginosa, 9545, 18 h. As for the experimental part: as §1, §2, §3, §4, §5
Experiment [4] relates to Staphylococcus aureus, 10165. The note with it: for MIC: Staphylococcus aureus, 10165, 18 h. How it is done: as §1, §2, §3, §4, §5
Experiment [5] concerns Klebsiella pneumoniae, 9527. The note with it: K-10 agar, 10^4 CFU, 37°C; for MIC: Klebsiella pneumoniae, 9527, 18 h. How it is done:
as §1, §2, §3, §4, §5

Experiment [6] concerns Serratia marcescens, 9783. The following applies: K-10 agar, 10^4 CFU, 37°C; for MIC: Serratia marcescens, 9783, 18 h. As for the experimental part:
as §1, §2, §3, §4, §5

Experiment [7] concerns Klebsiella aerogenes, 10440. The following applies: K-10 agar, 10^4 CFU, 37°C; for MIC: Klebsiella aerogenes, 10440, 18 h. As for the experimental part:
as §1, §2, §3, §4, §5

For experiment [8], the system named is Salmonella typhosa, 1195. The note with it: K-10 agar, 10^4 CFU, 37°C; for MIC: Salmonella enterica, TYPHOSA, 18 h. How it is done: as §1, §2, §3, §4, §5
For experiment [9], the system named is Staphylococcus aureus, 1276. The following applies: for MIC: Staphylococcus aureus, 1276, 18 h. As for the experimental part: as §1, §2, §3, §4, §5
Experiment [10] deals with Citrobacter freundii, 9518. The note with it: K-10 agar, 10^4 CFU, 37°C; for MIC: Citrobacter freundii, 9518, 18 h. How it is done:
as §1, §2, §3, §4, §5

The test system of experiment [11] is Streptococcus faecalis, 9011. The note with it: for MIC: Enterococcus faecalis, 9011, 18 h. How it is done:
as §1, §2, §3, §4, §5

In experiment [12] the test system is Escherichia coli, 8294. The following applies: K-10 agar, 10^4 CFU, 37°C; for MIC: Escherichia coli, 8294, 18 h. As for the experimental part:
as §1, §2, §3, §4, §5

Experiment [13] deals with Proteus rettgeri, 8479. The following applies: K-10 agar, 10^4 CFU, 37°C; for MIC: Providencia rettgeri, 8479, 18 h. How it is done:
as §1, §2, §3, §4, §5

The subject of experiment [14] is Proteus mirabilis, 3855. The following applies: K-10 agar, 10^4 CFU, 37°C; for MIC: Proteus mirabilis, 3855, 18 h. How it is done: as §1, §2, §3, §4, §5
Experiment [15] has as its system Pseudomonas aeruginosa, 8329. The following applies: K-10 agar, 10^4 CFU, 37°C; for MIC: Pseudomonas aeruginosa, 8329, 18 h. As for the experimental part:
as §1, §2, §3, §4, §5

Experiment [16] deals with Shigella sonnei, 8449. The following applies: K-10 agar, 10^4 CFU, 37°C; for M.I.C.: 18 hours. As for the experimental part: as §1, §2, §3, §4, §5
The test system of experiment [17] is Staphylococcus aureus, 2400. The note with it: for MIC: Staphylococcus aureus, 2400, 18 h. As for the experimental part:
as §1, §2, §3, §4, §5

In experiment [18] the test system is Escherichia coli, 10857. The note with it: K-10 agar, 10^4 CFU, 37°C; for MIC: Escherichia coli, 10857, 18 h. How it is done: as §1, §2, §3, §4, §5
The test system of experiment [19] is Escherichia coli, 10896. The following applies: K-10 agar, 10^4 CFU, 37°C, 18 hours. How it is done:
as §1, §2, §3, §4, §5

Experiment [20] relates to Acinetobacter calcoaceticus, 8333. The following applies: K-10 agar, 10^4 CFU, 37°C; for MIC: Acinetobacter calcoaceticus, 8333, 18 h. How it is done:
as §1, §2, §3, §4, §5

The subject of experiment [21] is Staphylococcus aureus, 2399. The following applies: for MIC: Staphylococcus aureus, 2399, 18 h. As for the experimental part: as §1, §2, §3, §4, §5
The subject of experiment [22] is Escherichia coli, 10909. The following applies: K-10 agar, 10^4 CFU, 37°C, 18 hours. As for the experimental part:
as §1, §2, §3, §4, §5

In experiment [23] the test system is Streptococcus agalactiae, 9287. The note with it: K-10 agar, 10^4 CFU, 37°C. How it is done: as §1, §2, §3
(§6) The MIC is the lowest concentration of compound inhibiting growth of the organism.
(§7) The number following each organism refers to the number of the organism in the collection of E. R. Squibb & Sons,.Inc., Princeton, New Jersey. […] The symbol "N.T." means not tested.

Experiment [24] concerns Micrococcus luteus, 2495. The note with it: Micrococcus luteus, 2495, 18 h, K-10 agar, 10^4 CFU, 37°C. As for the experimental part: as §1, §2, §3, §6, §7

In the case of `C[C@@H]1[C@H](NC(=O)/C(=N\OC(C)(C)C(=O)O)c2csc(N)n2)C(=O)N1S(=O)(=O)O` [Example 23, [3S-(3α(Z),4a]]-3-[[(2-Amino-4-thiazolyl) [(1-carboxy-1-methylethoxy)imino)acetyl]amino]-4-methyl-2-oxo-l-azetidinesulfonic acid, potassium salt (1:2)], the M.I.C. in experiment [1] (18 hours) was 0.05 µg/mL; in experiment [2] (Enterobacter aerogenes, 10078, K-10 agar, 10^4 CFU, 37°C, 18 hours) it was 0.8 µg/mL; in experiment [3] (18 hours), 0.4 µg/mL; in experiment [4] (Staphylococcus aureus, 10165, K-10 agar, 10^4 CFU, 37°C, 18 hours), “- (A dash (-) in the tables means that the compound tested did not show activity against the particular organism at 100 µg/ml)”; in [5] (18 hours), 0.05 µg/mL; in [6] (18 hours), 0.2 µg/mL. In addition, the M.I.C. was 0.4 µg/mL in experiment [7] (18 hours); 0.05 µg/mL in experiment [8] (18 hours); “- (A dash (-) in the tables means that the compound tested did not show activity against the particular organism at 100 µg/ml)” in [9] (Staphylococcus aureus, 1276, K-10 agar, 10^4 CFU, 37°C, 18 hours); 0.4 µg/mL in experiment [10] (18 hours); “- (A dash (-) in the tables means that the compound tested did not show activity against the particular organism at 100 µg/ml)” in experiment [11] (Streptococcus faecalis, 9011, K-10 agar, 10^4 CFU, 37°C, 18 hours); 0.2 µg/mL in experiment [12] (18 hours). For the same molecule, the M.I.C. in experiment [13] (18 hours) was 0.05 µg/mL; in experiment [14] (18 hours), 0.05 µg/mL; in experiment [15] (18 hours) it was 1.6 µg/mL; in [16], 0.1 µg/mL; in experiment [17] (Staphylococcus aureus, 2400, K-10 agar, 10^4 CFU, 37°C, 18 hours) it was “- (A dash (-) in the tables means that the compound tested did not show activity against the particular organism at 100 µg/ml)”; in experiment [18] (18 hours) it was 0.1 µg/mL. Also, the M.I.C. is 0.2 µg/mL in experiment [19]; 25 µg/mL in experiment [20] (18 hours); “- (A dash (-) in the tables means that the compound tested did not show activity against the particular organism at 100 µg/ml)” in experiment [21] (Staphylococcus aureus, 2399, K-10 agar, 10^4 CFU, 37°C, 18 hours).
Regarding `C[C@@H]1[C@H](NC(=O)/C(=N\OC(C)(C)C(=O)O)c2csc(N)n2)C(=O)N1S(=O)(=O)O` [Example 16, [3α(Z),4α]-3-[[(2-Amino-4-thiazolyl) [(1-carboxy-1-methylethoxy)imino]acetyl]amino]-4-methyl-2-oxo-l-azetidinesulfonic acid, potassium salt (1:2)], the MIC in [1] is below 0.05 µg/mL; in experiment [2], 0.8 µg/mL; in experiment [3] it was 0.8 µg/mL; in experiment [4] it was above 100 µg/mL; in [5], 0.1 µg/mL; in experiment [6], 0.4 µg/mL. Also, the MIC is 0.8 µg/mL in experiment [7]; below 0.05 µg/mL in experiment [8]; above 100 µg/mL in [9]; 0.8 µg/mL in [10]; above 100 µg/mL in experiment [11]; 0.4 µg/mL in experiment [12]. Also, the MIC in experiment [13] was below 0.05 µg/mL; in experiment [14] it was below 0.05 µg/mL; in [15], 3.1 µg/mL; in experiment [17] it was above 100 µg/mL; in experiment [18], 0.2 µg/mL; in [19], 0.2 µg/mL. For the same molecule, the MIC in experiment [20] is 50 µg/mL; in experiment [22] it was below 0.05 µg/mL; in [21], above 100 µg/mL; in experiment [24], 25 µg/mL. The M.I.C. in experiment [16] was found to be 0.4 µg/mL; in experiment [23] (18 hours), 50 µg/mL.
In the case of `CC1C(NC(=O)C(=NOC(C)(C)C(=O)O)c2csc(N)n2)C(=O)N1S(=O)(=O)O` (stereo not drawn) [Example 6, [3S-[3α (Z) ,4β]]3-[[(2-Amino-4-thiazolyl) [[1-carboxy-1-methylethoxy)imino]acetyl)amino)-4-methyl-2-oxo-1-azetidinesulfonic acid, dipotassium salt], the MIC in [1] is below 0.05 µg/mL; in experiment [2] it was 0.4 µg/mL; in experiment [3], 0.8 µg/mL; in [4], above 100 µg/mL; in experiment [5], below 0.05 µg/mL; in [6], 0.2 µg/mL. The MIC was 0.4 µg/mL in experiment [7]; below 0.05 µg/mL in experiment [8]; above 100 µg/mL in [9]; 0.4 µg/mL in [10]; above 100 µg/mL in experiment [11]; 0.4 µg/mL in experiment [12]. The MIC in [13] is below 0.05 µg/mL; in experiment [14], below 0.05 µg/mL; in [15], 3.1 µg/mL; in [16] (Shigella sonnei, 8449, 18 h), 0.2 µg/mL; in experiment [17] it was above 100 µg/mL; in experiment [18], below 0.05 µg/mL. The MIC was 0.2 µg/mL in experiment [19]; 100 µg/mL in experiment [20]; below 0.05 µg/mL in experiment [22]; above 100 µg/mL in experiment [21]; 50 µg/mL in experiment [23] (Streptococcus agalactiae, 9287, 18 h).

What is called MIC is the smallest concentration in the dilution series that meets the test's criterion for growth inhibition.
